# Target: T1, group II metabotropic glutamate receptor subtype 3 (mGluR3) (Homo sapiens, UniProt Q14832)
# T1 construct: expressed in transfected cells; host or cells: Xenopus oocytes injected with cRNAs of mGluR3, GIRK1 and GIRK4
# Assay: Electrophysiological measurement of response current in Xenopus oocytes injected with mGluR3, GIRK1 and GIRK4 cRNAs
# Format: cell-based
# Conditions: for mgluR3 (receptor activation by amino acid): amino acid alone, 1 mM, oocytes injected with mGluR3, GIRK1, GIRK4 cRNAs
# T1 sequence (Q14832 23-879): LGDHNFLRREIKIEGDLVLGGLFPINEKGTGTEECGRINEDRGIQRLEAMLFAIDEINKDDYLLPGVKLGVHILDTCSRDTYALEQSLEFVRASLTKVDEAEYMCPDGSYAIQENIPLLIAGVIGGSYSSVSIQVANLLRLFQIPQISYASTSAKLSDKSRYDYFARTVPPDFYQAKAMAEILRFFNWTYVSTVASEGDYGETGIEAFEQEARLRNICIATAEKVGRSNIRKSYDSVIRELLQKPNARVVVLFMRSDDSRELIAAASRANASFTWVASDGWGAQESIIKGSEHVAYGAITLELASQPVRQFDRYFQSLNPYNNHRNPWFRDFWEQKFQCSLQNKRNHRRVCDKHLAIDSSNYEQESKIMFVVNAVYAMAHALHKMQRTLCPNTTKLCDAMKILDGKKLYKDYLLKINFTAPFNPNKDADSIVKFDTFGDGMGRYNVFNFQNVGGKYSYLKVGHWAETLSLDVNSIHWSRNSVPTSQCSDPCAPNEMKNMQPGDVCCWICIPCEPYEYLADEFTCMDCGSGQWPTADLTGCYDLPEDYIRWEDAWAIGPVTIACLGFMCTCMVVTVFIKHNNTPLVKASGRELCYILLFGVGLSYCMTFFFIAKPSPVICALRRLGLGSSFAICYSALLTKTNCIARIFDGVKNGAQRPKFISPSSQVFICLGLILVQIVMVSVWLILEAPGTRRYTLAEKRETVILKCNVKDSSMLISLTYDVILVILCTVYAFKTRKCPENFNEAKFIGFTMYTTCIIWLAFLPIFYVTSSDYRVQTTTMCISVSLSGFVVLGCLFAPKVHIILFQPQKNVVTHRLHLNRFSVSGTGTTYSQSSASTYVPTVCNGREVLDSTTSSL
compound,measurement,setting,value
"CC(C)C[C@H](N)C(=O)O [Leucine, leucine]",mgluR3 (receptor activation by amino acid),,Activated
same,mgluR3 (receptor activation by amino acid),listed as leucine,effects of enhancing the activation
same,effect of amino acid (response current value) with cation vs amino acid alone,"coexistence with calcium ion (10 mM), glutamic acid 3 μM, aspartic acid 300 μM, leucine 1 mM, cysteine 1 mM, FIG. 7",enhanced
same,effect of amino acid (response current value) with nucleic acid and cation vs amino acid alone,"coexistence with inosinic acid (1 mM) and calcium ion (10 mM), glutamic acid 3 μM, aspartic acid 300 μM, leucine 1 mM, cysteine 1 mM, FIG. 8",enhanced
same,effect of amino acid (response current value) with nucleic acid vs amino acid alone,"coexistence with inosinic acid (1 mM), glutamic acid 3 μM, aspartic acid 300 μM, valine 1 mM, leucine 1 mM, FIG. 6",enhanced
"N[C@@H](Cc1c[nH]cn1)C(=O)O [Histidine, histidine]",mgluR3 (receptor activation by amino acid),,Activated
same,mgluR3 (receptor activation by amino acid),listed as histidine,effects of enhancing the activation
"N[C@@H](Cc1ccc(O)cc1)C(=O)O [Tyrosine, tyrosine]",mgluR3 (receptor activation by amino acid),,Activated
same,mgluR3 (receptor activation by amino acid),listed as tyrosine,effects of enhancing the activation
"N[C@@H](Cc1ccccc1)C(=O)O [Phenylalanine, phenylalanine]",mgluR3 (receptor activation by amino acid),,Activated
same,mgluR3 (receptor activation by amino acid),listed as phenylalanine,effects of enhancing the activation
"NC(=O)CC[C@H](N)C(=O)O [Glutamine, glutamine]",mgluR3 (receptor activation by amino acid),,Activated
same,mgluR3 (receptor activation by amino acid),listed as glutamine,effects of enhancing the activation
"CC[C@H](C)[C@H](N)C(=O)O [Isoleucine, isoleucine]",mgluR3 (receptor activation by amino acid),,Activated
same,mgluR3 (receptor activation by amino acid),listed as isoleucine,effects of enhancing the activation
"N[C@@H](Cc1c[nH]c2ccccc12)C(=O)O [Tryptophan, tryptophan]",mgluR3 (receptor activation by amino acid),,Activated
same,mgluR3 (receptor activation by amino acid),listed as tryptophan,effects of enhancing the activation
"C[C@@H](O)[C@H](N)C(=O)O [Threonine, threonine]",mgluR3 (receptor activation by amino acid),,Activated
same,mgluR3 (receptor activation by amino acid),listed as threonine,effects of enhancing the activation
"NCCCC[C@H](N)C(=O)O [Lysine, lysine]",mgluR3 (receptor activation by amino acid),,Activated
same,mgluR3 (receptor activation by amino acid),listed as lysine,effects of enhancing the activation
"NCCC[C@H](N)C(=O)O [Ornithine, ornithine]",mgluR3 (receptor activation by amino acid),,Activated
same,mgluR3 (receptor activation by amino acid),listed as ornithine,effects of enhancing the activation
"CSCC[C@H](N)C(=O)O [Methionine, methionine]",mgluR3 (receptor activation by amino acid),,Activated
same,mgluR3 (receptor activation by amino acid),listed as methionine,effects of enhancing the activation
"N=C(N)NCCC[C@H](N)C(=O)O [Arginine, arginine]",mgluR3 (receptor activation by amino acid),,Activated
same,mgluR3 (receptor activation by amino acid),listed as arginine,effects of enhancing the activation
"N[C@@H](CO)C(=O)O [Serine, serine]",mgluR3 (receptor activation by amino acid),,Activated
same,mgluR3 (receptor activation by amino acid),listed as serine,effects of enhancing the activation
"NCC(=O)O [Glycine, glycine]",mgluR3 (receptor activation by amino acid),,Activated
same,mgluR3 (receptor activation by amino acid),listed as glycine,effects of enhancing the activation
"O=C(O)[C@@H]1C[C@@H](O)CN1 [Hydroxyproline, hydroxyproline]",mgluR3 (receptor activation by amino acid),,Activated
same,mgluR3 (receptor activation by amino acid),listed as hydroxyproline,effects of enhancing the activation
"NC(=O)C[C@H](N)C(=O)O [Asparagine, asparagine]",mgluR3 (receptor activation by amino acid),,Activated
same,mgluR3 (receptor activation by amino acid),listed as asparagine,effects of enhancing the activation
"O=C(O)[C@@H]1CCCN1 [Proline, proline]",mgluR3 (receptor activation by amino acid),,Activated
same,mgluR3 (receptor activation by amino acid),listed as proline,effects of enhancing the activation
"NCCS(=O)(=O)O [Taurine, taurine]",mgluR3 (receptor activation by amino acid),,Activated
same,mgluR3 (receptor activation by amino acid),listed as taurine,effects of enhancing the activation
"C[C@H](N)C(=O)O [Alanine, alanine]",mgluR3 (receptor activation by amino acid),,Activated
same,mgluR3 (receptor activation by amino acid),listed as alanine,effects of enhancing the activation

# Reference: patent US20080182811A1, “METABOTROPIC GLUTAMATE RECEPTOR ACTIVATOR” (Ajinomoto Co., Inc., priority 2005, published 2008)
